US20250255867A1 (Kadmon Corporation, LLC, priority 2022, published 2025)

Conditions: Cohort 3 400 mg QD
Protocol: All responses were assessed by the investigators.
Reported Adverse Events. […] All-cause mortality data collected during the study were assessed for all enrolled participants. Disease progression related death was not reported as AE.
Number of Participants With Treatment-emergent Adverse Events (TEAEs), and Treatment-emergent Serious Adverse Events (TESAEs). […] TEAEs included both SAEs and non-SAEs. […] Analysis was performed on safety population which included all participants who received at least 1 dose of study medication.

Structure (SMILES): CC(C)NC(=O)COc1cccc(-c2nc(Nc3ccc4[nH]ncc4c3)c3ccccc3n2)c1 [Belumosudil, 2-{3-[4-(1H-indazol-5-ylamino)-2-quinazolinyl]phenoxy}-N-(propan-2-yl) acetamide]
- Glaucoma: Affected/At Risk (%): (0%)
- Glucose urine present: # Events: 3
- Glucose urine present: Affected/At Risk: 1/21
- Glucose urine present: Affected/At Risk (%): (4.76%)
- Graft versus host disease in gastrointestinal tract: # Events: 0
- Graft versus host disease in gastrointestinal tract: Affected/At Risk: 0/21
- Graft versus host disease in gastrointestinal tract: Affected/At Risk (%): (0%)
- Gynaecomastia: # Events: 0
- Gynaecomastia: Affected/At Risk: 0/21
- Gynaecomastia: Affected/At Risk (%): (0%)
- Haematuria: # Events: 2
- Haematuria: Affected/At Risk: 1/21
- Haematuria: Affected/At Risk (%): (4.76%)
- Hair growth abnormal: # Events: 0
- Hair growth abnormal: Affected/At Risk: 0/21
- Hair growth abnormal: Affected/At Risk (%): (0%)
- Headache: # Events: 8
- Headache: Affected/At Risk: 6/21
- Headache: Affected/At Risk (%): (28.57%)
- Hodgkin's disease recurrent: # Events: 0
- Hodgkin's disease recurrent: Affected/At Risk: 0/21
- Hodgkin's disease recurrent: Affected/At Risk (%): (0%)
- Hordeolum: # Events: 1
- Hordeolum: Affected/At Risk: 1/21
- Hordeolum: Affected/At Risk (%): (4.76%)
- Hot flush: # Events: 0
- Hot flush: Affected/At Risk: 0/21
- Hot flush: Affected/At Risk (%): (0%)
- Hyperglycemia: # Events: 8
- Hyperglycemia: Affected/At Risk: 3/21
- Hyperglycemia: Affected/At Risk (%): (14.29%)
- Hyperhidrosis: # Events: 1
- Hyperhidrosis: Affected/At Risk: 1/21
- Hyperhidrosis: Affected/At Risk (%): (4.76%)
- Hyperkalaemia: # Events: 4
- Hyperkalaemia: Affected/At Risk: 3/21
- Hyperkalaemia: Affected/At Risk (%): (14.29%)
- Hypertension: # Events: 6
- Hypertension: Affected/At Risk: 4/21
- Hypertension: Affected/At Risk (%): (19.05%)
- Hyperthyroidism: # Events: 1
- Hyperthyroidism: Affected/At Risk: 1/21
- Hyperthyroidism: Affected/At Risk (%): (4.76%)
- Hypertriglyceridaemia: # Events: 0
- Hypertriglyceridaemia: Affected/At Risk: 0/21
- Hypertriglyceridaemia: Affected/At Risk (%): (0%)
- Hyperuricaemia: # Events: 5
- Hyperuricaemia: Affected/At Risk: 3/21
- Hyperuricaemia: Affected/At Risk (%): (14.29%)
- Hypoaesthesia: # Events: 1
- Hypoaesthesia: Affected/At Risk: 1/21
- Hypoaesthesia: Affected/At Risk (%): (4.76%)
- Hypocalcaemia: # Events: 1
- Hypocalcaemia: Affected/At Risk: 1/21
- Hypocalcaemia: Affected/At Risk (%): (4.76%)
- Hypogonadism: # Events: 0
- Hypogonadism: Affected/At Risk: 0/21
- Hypogonadism: Affected/At Risk (%): (0%)
- Hypokalaemia: # Events: 0
- Hypokalaemia: Affected/At Risk: 0/21
- Hypokalaemia: Affected/At Risk (%): (0%)
- Hypomagnesaemia: # Events: 1
- Hypomagnesaemia: Affected/At Risk: 1/21
- Hypomagnesaemia: Affected/At Risk (%): (4.76%)
- Hyponatraemia: # Events: 2
- Hyponatraemia: Affected/At Risk: 2/21
- Hyponatraemia: Affected/At Risk (%): (9.52%)
- Hypophosphataemia: # Events: 1
- Hypophosphataemia: Affected/At Risk: 1/21
- Hypophosphataemia: Affected/At Risk (%): (4.76%)
- Hypothermia: # Events: 0
- Hypothermia: Affected/At Risk: 0/21
- Hypothermia: Affected/At Risk (%): (0%)
- Hypothyroidism: # Events: 4
- Hypothyroidism: Affected/At Risk: 3/21
- Hypothyroidism: Affected/At Risk (%): (14.29%)
- Hypoxia: # Events: 3
- Hypoxia: Affected/At Risk: 3/21
- Hypoxia: Affected/At Risk (%): (14.29%)
- Impaired healing: # Events: 0
- Impaired healing: Affected/At Risk: 0/21
- Impaired healing: Affected/At Risk (%): (0%)
- Influenza like illness: # Events: 0
- Influenza like illness: Affected/At Risk: 0/21
- Influenza like illness: Affected/At Risk (%): (0%)
- Influenza: # Events: 2
- Influenza: Affected/At Risk: 2/21
- Influenza: Affected/At Risk (%): (9.52%)
- Insomnia: # Events: 3
- Insomnia: Affected/At Risk: 3/21
- Insomnia: Affected/At Risk (%): (14.29%)
- Irritability: # Events: 0
- Irritability: Affected/At Risk: 0/21
- Irritability: Affected/At Risk (%): (0%)
- Joint range of motion decreased: # Events: 1
- Joint range of motion decreased: Affected/At Risk: 1/21
- Joint range of motion decreased: Affected/At Risk (%): (4.76%)
- Lacrimation increased: # Events: 0
- Lacrimation increased: Affected/At Risk: 0/21
- Lacrimation increased: Affected/At Risk (%): (0%)
- Leukaemia recurrent: # Events: 0
- Leukaemia recurrent: Affected/At Risk: 0/21
- Leukaemia recurrent: Affected/At Risk (%): (0%)
- Leukocytosis: # Events: 1
- Leukocytosis: Affected/At Risk: 1/21
- Leukocytosis: Affected/At Risk (%): (4.76%)
- Ligament sprain: # Events: 0
- Ligament sprain: Affected/At Risk: 0/21
- Ligament sprain: Affected/At Risk (%): (0%)
- Limb injury: # Events: 1
- Limb injury: Affected/At Risk: 1/21
- Limb injury: Affected/At Risk (%): (4.76%)
- Macular degeneration: # Events: 0
- Macular degeneration: Affected/At Risk: 0/21
- Macular degeneration: Affected/At Risk (%): (0%)
- Migraine: # Events: 0
- Migraine: Affected/At Risk: 0/21
- Migraine: Affected/At Risk (%): (0%)
- Muscle spasms: # Events: 6
- Muscle spasms: Affected/At Risk: 6/21
- Muscle spasms: Affected/At Risk (%): (28.57%)
- Muscle spasticity: # Events: 1
- Muscle spasticity: Affected/At Risk: 1/21
- Muscle spasticity: Affected/At Risk (%): (4.76%)
- Muscular weakness: # Events: 2
- Muscular weakness: Affected/At Risk: 2/21
- Muscular weakness: Affected/At Risk (%): (9.52%)
- Musculoskeletal chest pain: # Events: 1
- Musculoskeletal chest pain: Affected/At Risk: 1/21
- Musculoskeletal chest pain: Affected/At Risk (%): (4.76%)
- Myalgia: # Events: 3
- Myalgia: Affected/At Risk: 3/21
- Myalgia: Affected/At Risk (%): (14.29%)
- Nail disorder: # Events: 0
- Nail disorder: Affected/At Risk: 0/21
- Nail disorder: Affected/At Risk (%): (0%)
- Nasal congestion: # Events: 1
- Nasal congestion: Affected/At Risk: 1/21
- Nasal congestion: Affected/At Risk (%): (4.76%)
- Nausea: # Events: 12
- Nausea: Affected/At Risk: 9/21
- Nausea: Affected/At Risk (%): (42.86%)
- Neck pain: # Events: 0
- Neck pain: Affected/At Risk: 0/21
- Neck pain: Affected/At Risk (%): (0%)
- Nephrotic syndrome: # Events: 0
- Nephrotic syndrome: Affected/At Risk: 0/21
- Nephrotic syndrome: Affected/At Risk (%): (0%)
- Neuropathy peripheral: # Events: 2
- Neuropathy peripheral: Affected/At Risk: 1/21
- Neuropathy peripheral: Affected/At Risk (%): (4.76%)
- Neutrophil count decreased: # Events: 1
- Neutrophil count decreased: Affected/At Risk: 1/21
- Neutrophil count decreased: Affected/At Risk (%): (4.76%)
- Nocturia: # Events: 0
- Nocturia: Affected/At Risk: 0/21
- Nocturia: Affected/At Risk (%): (0%)
- Non-cardiac chest pain: # Events: 1
- Non-cardiac chest pain: Affected/At Risk: 1/21
- Non-cardiac chest pain: Affected/At Risk (%): (4.76%)
- Obesity: # Events: 0
- Obesity: Affected/At Risk: 0/21
- Obesity: Affected/At Risk (%): (0%)
- Oedema peripheral: # Events: 6
- Oedema peripheral: Affected/At Risk: 6/21
- Oedema peripheral: Affected/At Risk (%): (28.57%)
- Oedema: # Events: 0
- Oedema: Affected/At Risk: 0/21
- Oedema: Affected/At Risk (%): (0%)
- Oesophageal ulcer: # Events: 0
- Oesophageal ulcer: Affected/At Risk: 0/21
- Oesophageal ulcer: Affected/At Risk (%): (0%)
- Oral candidiasis: # Events: 0
- Oral candidiasis: Affected/At Risk: 0/21
- Oral candidiasis: Affected/At Risk (%): (0%)
- Oropharyngeal pain: # Events: 1
- Oropharyngeal pain: Affected/At Risk: 1/21
- Oropharyngeal pain: Affected/At Risk (%): (4.76%)
- Orthopnoea: # Events: 0
- Orthopnoea: Affected/At Risk: 0/21
- Orthopnoea: Affected/At Risk (%): (0%)
- Osteonecrosis: # Events: 0
- Osteonecrosis: Affected/At Risk: 0/21
- Osteonecrosis: Affected/At Risk (%): (0%)
- Osteopenia: # Events: 0
- Osteopenia: Affected/At Risk: 0/21
- Osteopenia: Affected/At Risk (%): (0%)
- Osteoporosis: # Events: 0
- Osteoporosis: Affected/At Risk: 0/21
- Osteoporosis: Affected/At Risk (%): (0%)
- Overdose: # Events: 0
- Overdose: Affected/At Risk: 0/21
- Overdose: Affected/At Risk (%): (0%)
- Pain in extremity: # Events: 5
- Pain in extremity: Affected/At Risk: 4/21
- Pain in extremity: Affected/At Risk (%): (19.05%)
- Pain: # Events: 1
- Pain: Affected/At Risk: 1/21
- Pain: Affected/At Risk (%): (4.76%)
- Palpitations: # Events: 1
- Palpitations: Affected/At Risk: 1/21
- Palpitations: Affected/At Risk (%): (4.76%)
- Paraesthesia: # Events: 1
- Paraesthesia: Affected/At Risk: 1/21
- Paraesthesia: Affected/At Risk (%): (4.76%)
- Participants with TEAE: 20 (95%) participants
- Participants with TESAE: 13 (62%) participants
- Pericardial effusion: # Events: 0
- Pericardial effusion: Affected/At Risk: 0/21
- Pericardial effusion: Affected/At Risk (%): (0%)
- Peripheral coldness: # Events: 0
- Peripheral coldness: Affected/At Risk: 0/21
- Peripheral coldness: Affected/At Risk (%): (0%)
- Peripheral sensory neuropathy: # Events: 0
- Peripheral sensory neuropathy: Affected/At Risk: 0/21
- Peripheral sensory neuropathy: Affected/At Risk (%): (0%)
- Phlebitis: # Events: 0
- Phlebitis: Affected/At Risk: 0/21
- Phlebitis: Affected/At Risk (%): (0%)
- Photophobia: # Events: 2
- Photophobia: Affected/At Risk: 2/21
- Photophobia: Affected/At Risk (%): (9.52%)
- Platelet count decreased: # Events: 0
- Platelet count decreased: Affected/At Risk: 0/21
- Platelet count decreased: Affected/At Risk (%): (0%)
- Pleural effusion: # Events: 1
- Pleural effusion: Affected/At Risk: 1/21
- Pleural effusion: Affected/At Risk (%): (4.76%)
- Pneumonia respiratory syncytial viral: # Events: 0
- Pneumonia respiratory syncytial viral: Affected/At Risk: 0/21
- Pneumonia respiratory syncytial viral: Affected/At Risk (%): (0%)
- Pneumonia: # Events: 0
- Pneumonia: Affected/At Risk: 0/21
- Pneumonia: Affected/At Risk (%): (0%)
- Pollakiuria: # Events: 0
- Pollakiuria: Affected/At Risk: 0/21
- Pollakiuria: Affected/At Risk (%): (0%)
- Presyncope: # Events: 0
- Presyncope: Affected/At Risk: 0/21
- Presyncope: Affected/At Risk (%): (0%)
- Productive cough: # Events: 2
- Productive cough: Affected/At Risk: 1/21
- Productive cough: Affected/At Risk (%): (4.76%)
- Proteinuria: # Events: 0
- Proteinuria: Affected/At Risk: 0/21
- Proteinuria: Affected/At Risk (%): (0%)
- Pruritus: # Events: 0
- Pruritus: Affected/At Risk: 0/21
- Pruritus: Affected/At Risk (%): (0%)
- Pseudomonas infection: # Events: 0
- Pseudomonas infection: Affected/At Risk: 0/21
- Pseudomonas infection: Affected/At Risk (%): (0%)
- Pulmonary mass: # Events: 1
- Pulmonary mass: Affected/At Risk: 1/21
- Pulmonary mass: Affected/At Risk (%): (4.76%)
- Pyrexia: # Events: 3
- Pyrexia: Affected/At Risk: 3/21
- Pyrexia: Affected/At Risk (%): (14.29%)
- Rash erythematous: # Events: 0
- Rash erythematous: Affected/At Risk: 0/21
- Rash erythematous: Affected/At Risk (%): (0%)
- Rash maculo-papular: # Events: 0
- Rash maculo-papular: Affected/At Risk: 0/21
- Rash maculo-papular: Affected/At Risk (%): (0%)
- Rash pustular: # Events: 0
- Rash pustular: Affected/At Risk: 0/21
- Rash pustular: Affected/At Risk (%): (0%)
- Rash: # Events: 1
- Rash: Affected/At Risk: 1/21
- Rash: Affected/At Risk (%): (4.76%)
- Red blood cells urine positive: # Events: 0
- Red blood cells urine positive: Affected/At Risk: 0/21
- Red blood cells urine positive: Affected/At Risk (%): (0%)
- Renal failure: # Events: 0
